We go through two compounds from paper PMC9329436, “Optimization of the 4-anilinoquin(az)oline scaffold as epidermal growth factor receptor (EGFR) inhibitors for chordoma utilizing a toxicology profiling assay platform” (Scientific Reports, 2022).

Holding throughout (format): biochemical
The target in assay [1] is T1, 320 wild-type protein kinases (Homo sapiens, UniProt P42679).
T1 sequence (P42679 1-507): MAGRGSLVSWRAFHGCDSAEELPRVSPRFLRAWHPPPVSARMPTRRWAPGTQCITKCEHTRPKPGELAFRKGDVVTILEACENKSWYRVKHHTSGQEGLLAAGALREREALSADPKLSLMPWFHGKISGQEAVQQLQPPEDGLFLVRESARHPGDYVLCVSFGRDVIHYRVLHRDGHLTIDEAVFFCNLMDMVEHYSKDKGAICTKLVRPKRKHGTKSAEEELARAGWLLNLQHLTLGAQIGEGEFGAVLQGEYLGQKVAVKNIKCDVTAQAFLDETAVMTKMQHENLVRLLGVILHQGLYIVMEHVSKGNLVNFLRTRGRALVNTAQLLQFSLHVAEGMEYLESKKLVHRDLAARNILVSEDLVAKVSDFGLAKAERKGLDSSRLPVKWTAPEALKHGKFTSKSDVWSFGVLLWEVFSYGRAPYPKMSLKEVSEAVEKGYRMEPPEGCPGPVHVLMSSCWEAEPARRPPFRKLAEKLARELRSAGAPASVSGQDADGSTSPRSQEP
As to conditions: MATK, singlicate. An excerpt:
(§1) Table S4. Profiling of two compounds at two concentrations against 320 wild-type protein kinases; singlicate measurement; Residual activities (% of control).

The target in assay [2] is 320 wild-type protein kinases (Homo sapiens, UniProt P54764). The conditions noted are these: singlicate.
Source text: as §1

For assay [3], the target named is 320 wild-type protein kinases (Homo sapiens, UniProt Q00526). The conditions noted are these: singlicate.
Source text: as §1

Assay [4] deals with 320 wild-type protein kinases (Homo sapiens, UniProt Q96SB4). The conditions noted are these: kinase SRPK1, singlicate.
Source text: as §1

The target in assay [5] is 320 wild-type protein kinases (Homo sapiens, UniProt P80192). As to conditions: singlicate.
Source text: as §1

For assay [6], the target named is 320 wild-type protein kinases (Homo sapiens, UniProt P53350). As to conditions: singlicate.
Source text: as §1

Assay [7] addresses 320 wild-type protein kinases (Homo sapiens, UniProt P49336). As to conditions: CDK8/CycC, singlicate.
Source text: as §1

Assay [8] has as its target T2, 320 wild-type protein kinases (Homo sapiens, UniProt Q6XUX3).
T2 sequence (Q6XUX3 1-929): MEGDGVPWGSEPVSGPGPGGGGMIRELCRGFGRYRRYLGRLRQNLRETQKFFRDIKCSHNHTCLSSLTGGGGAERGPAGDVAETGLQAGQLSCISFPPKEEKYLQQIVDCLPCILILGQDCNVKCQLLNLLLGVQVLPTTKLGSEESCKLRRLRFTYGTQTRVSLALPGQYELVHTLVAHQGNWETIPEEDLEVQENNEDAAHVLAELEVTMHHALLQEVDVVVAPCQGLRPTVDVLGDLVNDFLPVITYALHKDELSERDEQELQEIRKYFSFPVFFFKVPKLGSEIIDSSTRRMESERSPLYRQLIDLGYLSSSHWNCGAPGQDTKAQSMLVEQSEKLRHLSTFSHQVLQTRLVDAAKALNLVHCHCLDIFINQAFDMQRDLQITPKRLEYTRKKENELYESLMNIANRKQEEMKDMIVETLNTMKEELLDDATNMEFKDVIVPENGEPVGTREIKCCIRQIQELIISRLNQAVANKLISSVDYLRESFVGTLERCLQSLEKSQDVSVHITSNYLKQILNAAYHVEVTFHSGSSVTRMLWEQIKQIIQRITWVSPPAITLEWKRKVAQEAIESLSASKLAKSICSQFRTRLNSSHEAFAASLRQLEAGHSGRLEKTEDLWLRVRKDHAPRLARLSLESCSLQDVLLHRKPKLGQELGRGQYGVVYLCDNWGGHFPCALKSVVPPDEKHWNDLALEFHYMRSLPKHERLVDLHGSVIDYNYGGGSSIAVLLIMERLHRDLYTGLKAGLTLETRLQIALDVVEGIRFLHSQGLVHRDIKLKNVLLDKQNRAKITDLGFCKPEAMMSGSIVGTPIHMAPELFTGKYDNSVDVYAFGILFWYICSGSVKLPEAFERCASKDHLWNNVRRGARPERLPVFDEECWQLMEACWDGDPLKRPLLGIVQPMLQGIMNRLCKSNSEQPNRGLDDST
The conditions noted are these: kinase RIPK5, singlicate.
Source text: as §1

Assay [9] concerns the target 320 wild-type protein kinases (Homo sapiens, UniProt P42684). As to conditions: singlicate.
Source text: as §1

The target of assay [10] is 320 wild-type protein kinases (Homo sapiens, UniProt P07333). As to conditions: CSF1-R, singlicate.
Source text: as §1

The target of assay [11] is VEGFR2 (Homo sapiens, UniProt P35968). Description: 33PanQinase activity assay. The conditions noted are these: 10 μM.
Source text: as §1

Like-named read-outs stand apart in the source and are kept apart here. A value given as a limit tells only on which side of the number the result lay.

320 wild-type protein kinases (Homo sapiens, UniProt P42684), sequence (P42684 whole entry): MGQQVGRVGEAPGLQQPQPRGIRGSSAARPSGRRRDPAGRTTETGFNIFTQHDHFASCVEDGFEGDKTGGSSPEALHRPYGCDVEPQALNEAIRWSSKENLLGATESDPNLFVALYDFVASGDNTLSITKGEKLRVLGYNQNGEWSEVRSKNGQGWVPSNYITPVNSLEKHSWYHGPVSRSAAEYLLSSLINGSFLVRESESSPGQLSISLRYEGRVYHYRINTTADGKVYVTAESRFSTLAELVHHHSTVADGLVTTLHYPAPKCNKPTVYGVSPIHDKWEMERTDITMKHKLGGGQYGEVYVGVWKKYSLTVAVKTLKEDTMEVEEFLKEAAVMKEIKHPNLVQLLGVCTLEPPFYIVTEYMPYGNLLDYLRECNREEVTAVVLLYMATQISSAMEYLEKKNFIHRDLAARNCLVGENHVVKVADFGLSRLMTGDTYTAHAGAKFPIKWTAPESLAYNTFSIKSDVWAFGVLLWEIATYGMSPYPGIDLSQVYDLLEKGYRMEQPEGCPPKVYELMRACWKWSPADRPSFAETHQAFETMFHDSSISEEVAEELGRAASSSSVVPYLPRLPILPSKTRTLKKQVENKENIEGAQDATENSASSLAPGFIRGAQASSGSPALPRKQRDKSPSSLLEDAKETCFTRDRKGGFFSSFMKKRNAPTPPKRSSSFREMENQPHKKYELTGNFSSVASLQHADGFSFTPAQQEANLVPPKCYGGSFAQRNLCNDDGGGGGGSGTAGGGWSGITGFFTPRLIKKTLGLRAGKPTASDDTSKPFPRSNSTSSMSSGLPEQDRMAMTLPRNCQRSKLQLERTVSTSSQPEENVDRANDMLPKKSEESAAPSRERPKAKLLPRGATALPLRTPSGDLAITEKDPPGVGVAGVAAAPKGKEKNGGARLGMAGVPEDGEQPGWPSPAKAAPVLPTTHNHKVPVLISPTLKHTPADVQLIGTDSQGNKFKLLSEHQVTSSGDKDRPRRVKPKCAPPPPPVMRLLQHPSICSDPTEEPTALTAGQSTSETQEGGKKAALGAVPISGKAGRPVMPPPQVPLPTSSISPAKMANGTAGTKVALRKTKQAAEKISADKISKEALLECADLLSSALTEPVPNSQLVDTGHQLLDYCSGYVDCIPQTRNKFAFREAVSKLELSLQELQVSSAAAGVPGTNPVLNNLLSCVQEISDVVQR
320 wild-type protein kinases (Homo sapiens, UniProt P54764), sequence (P54764 20-986): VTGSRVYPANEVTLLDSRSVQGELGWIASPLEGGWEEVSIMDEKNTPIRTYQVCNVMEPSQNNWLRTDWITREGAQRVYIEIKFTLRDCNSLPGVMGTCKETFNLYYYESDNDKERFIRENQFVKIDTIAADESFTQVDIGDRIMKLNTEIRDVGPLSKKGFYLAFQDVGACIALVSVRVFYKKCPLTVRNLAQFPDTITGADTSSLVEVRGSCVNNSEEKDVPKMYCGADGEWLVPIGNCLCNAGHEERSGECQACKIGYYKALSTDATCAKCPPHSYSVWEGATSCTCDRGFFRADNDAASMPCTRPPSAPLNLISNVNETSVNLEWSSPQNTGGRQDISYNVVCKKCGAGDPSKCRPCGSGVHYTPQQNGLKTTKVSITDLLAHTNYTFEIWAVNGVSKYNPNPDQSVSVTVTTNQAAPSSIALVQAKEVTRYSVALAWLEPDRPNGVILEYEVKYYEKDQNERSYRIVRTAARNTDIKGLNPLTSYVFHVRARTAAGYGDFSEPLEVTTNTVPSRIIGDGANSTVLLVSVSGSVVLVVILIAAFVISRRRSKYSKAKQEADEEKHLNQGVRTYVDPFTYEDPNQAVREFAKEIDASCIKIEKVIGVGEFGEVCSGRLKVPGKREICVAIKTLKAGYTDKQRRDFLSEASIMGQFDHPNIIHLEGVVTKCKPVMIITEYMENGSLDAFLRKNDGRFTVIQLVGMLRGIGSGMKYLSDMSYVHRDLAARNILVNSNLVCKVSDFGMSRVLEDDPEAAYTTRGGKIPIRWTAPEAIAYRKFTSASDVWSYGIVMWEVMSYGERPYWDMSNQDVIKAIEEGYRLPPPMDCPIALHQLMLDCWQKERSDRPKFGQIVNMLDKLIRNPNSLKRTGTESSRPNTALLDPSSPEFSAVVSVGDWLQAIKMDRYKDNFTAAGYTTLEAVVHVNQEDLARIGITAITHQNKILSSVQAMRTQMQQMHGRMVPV
320 wild-type protein kinases (Homo sapiens, UniProt P07333), sequence (P07333 20-972): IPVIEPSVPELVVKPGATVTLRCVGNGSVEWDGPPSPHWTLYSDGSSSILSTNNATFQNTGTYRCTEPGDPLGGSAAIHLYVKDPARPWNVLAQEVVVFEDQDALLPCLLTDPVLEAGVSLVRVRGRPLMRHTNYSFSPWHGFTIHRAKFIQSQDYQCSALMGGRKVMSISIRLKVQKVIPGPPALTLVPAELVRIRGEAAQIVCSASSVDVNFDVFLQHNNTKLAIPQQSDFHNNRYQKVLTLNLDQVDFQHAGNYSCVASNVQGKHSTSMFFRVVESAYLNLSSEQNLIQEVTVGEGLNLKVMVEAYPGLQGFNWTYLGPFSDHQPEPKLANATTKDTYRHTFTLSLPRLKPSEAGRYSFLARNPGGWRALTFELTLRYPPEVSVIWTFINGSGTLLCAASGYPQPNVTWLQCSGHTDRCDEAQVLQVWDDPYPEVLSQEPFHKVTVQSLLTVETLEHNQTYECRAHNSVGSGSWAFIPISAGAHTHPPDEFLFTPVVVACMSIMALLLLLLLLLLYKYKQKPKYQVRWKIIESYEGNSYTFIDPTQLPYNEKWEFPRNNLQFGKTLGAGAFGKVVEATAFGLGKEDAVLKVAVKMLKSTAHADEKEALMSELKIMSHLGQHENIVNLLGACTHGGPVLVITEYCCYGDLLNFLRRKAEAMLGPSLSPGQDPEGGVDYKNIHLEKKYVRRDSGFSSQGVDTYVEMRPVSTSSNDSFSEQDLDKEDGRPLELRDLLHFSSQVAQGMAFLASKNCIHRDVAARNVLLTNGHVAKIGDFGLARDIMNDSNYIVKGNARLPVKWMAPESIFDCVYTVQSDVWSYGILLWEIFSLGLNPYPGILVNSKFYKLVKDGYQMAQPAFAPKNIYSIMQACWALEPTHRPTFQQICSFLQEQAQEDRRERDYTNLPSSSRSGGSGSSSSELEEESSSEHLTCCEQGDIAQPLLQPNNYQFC
320 wild-type protein kinases (Homo sapiens, UniProt P53350), sequence (P53350 whole entry): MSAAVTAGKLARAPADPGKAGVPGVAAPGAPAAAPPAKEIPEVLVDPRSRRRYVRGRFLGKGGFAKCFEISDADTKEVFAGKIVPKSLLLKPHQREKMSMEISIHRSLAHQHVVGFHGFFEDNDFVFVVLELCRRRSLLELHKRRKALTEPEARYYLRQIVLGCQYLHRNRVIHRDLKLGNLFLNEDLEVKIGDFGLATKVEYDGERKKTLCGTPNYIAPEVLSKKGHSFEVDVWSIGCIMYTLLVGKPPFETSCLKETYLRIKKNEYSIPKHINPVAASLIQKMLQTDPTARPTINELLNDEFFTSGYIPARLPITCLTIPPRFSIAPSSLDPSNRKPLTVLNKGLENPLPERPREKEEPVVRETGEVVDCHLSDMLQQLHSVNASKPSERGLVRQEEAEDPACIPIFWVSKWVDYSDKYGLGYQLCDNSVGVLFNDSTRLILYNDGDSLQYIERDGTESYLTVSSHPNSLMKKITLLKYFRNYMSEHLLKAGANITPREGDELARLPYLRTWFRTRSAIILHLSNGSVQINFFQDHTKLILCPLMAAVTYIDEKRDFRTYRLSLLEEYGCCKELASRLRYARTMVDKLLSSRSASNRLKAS
320 wild-type protein kinases (Homo sapiens, UniProt Q00526), sequence (Q00526 whole entry): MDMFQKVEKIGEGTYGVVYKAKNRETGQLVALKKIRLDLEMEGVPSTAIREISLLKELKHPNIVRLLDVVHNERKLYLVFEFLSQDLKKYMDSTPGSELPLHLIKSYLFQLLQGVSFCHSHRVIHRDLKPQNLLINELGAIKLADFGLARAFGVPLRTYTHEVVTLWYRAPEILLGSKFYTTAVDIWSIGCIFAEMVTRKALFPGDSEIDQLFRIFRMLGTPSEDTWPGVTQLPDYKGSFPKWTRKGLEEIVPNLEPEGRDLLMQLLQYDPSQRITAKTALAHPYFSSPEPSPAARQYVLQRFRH
320 wild-type protein kinases (Homo sapiens, UniProt P49336), sequence (P49336 whole entry): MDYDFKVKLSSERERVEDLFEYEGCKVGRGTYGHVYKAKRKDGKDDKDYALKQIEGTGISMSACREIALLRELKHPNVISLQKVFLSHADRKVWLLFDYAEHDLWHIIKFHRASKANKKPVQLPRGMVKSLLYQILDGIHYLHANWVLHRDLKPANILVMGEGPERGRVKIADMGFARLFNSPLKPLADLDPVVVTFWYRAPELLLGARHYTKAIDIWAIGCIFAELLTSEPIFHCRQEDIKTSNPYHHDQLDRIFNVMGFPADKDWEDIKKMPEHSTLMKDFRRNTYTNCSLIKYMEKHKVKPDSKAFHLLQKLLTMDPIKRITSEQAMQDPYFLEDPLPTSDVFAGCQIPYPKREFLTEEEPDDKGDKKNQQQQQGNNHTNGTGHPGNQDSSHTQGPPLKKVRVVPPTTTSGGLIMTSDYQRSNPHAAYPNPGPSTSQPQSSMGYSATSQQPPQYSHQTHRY

For `C#Cc1cc(Nc2ncnc3cc(OC)c(OC)cc23)ccc1Cl` [Compound 45], the Residual activity in [1] (1.0E-06 M) is 95 % of control; in assay [1] (1.0E-07 M) it was 108 % of control; in assay [2] (EPHA4, 1.0E-06 M), 61 % of control; in assay [2] (EPHA4, 1.0E-07 M), 99 % of control; in [3] (CDK3/CycC, 1.0E-06 M), 86 % of control; in [3] (CDK3/CycC, 1.0E-07 M), 92 % of control. In addition, the Residual activity is given as 102 % of control in assay [3] (CDK3/CycE1, 1.0E-06 M); 117 % of control in assay [3] (CDK3/CycE1, 1.0E-07 M); 61 % of control in assay [5] (MAP3K9, 1.0E-06 M); 92 % of control in [5] (MAP3K9, 1.0E-07 M); 77 % of control in assay [6] (PLK1, 1.0E-06 M); 91 % of control in assay [6] (PLK1, 1.0E-07 M). Moreover, the Residual activity in assay [7] (1.0E-06 M) is on record as 95 % of control; in assay [7] (1.0E-07 M), 97 % of control; in assay [9] (ABL2, 1.0E-06 M) it was 68 % of control; in assay [9] (ABL2, 1.0E-07 M) it was 96 % of control; in assay [10] (1.0E-06 M), 108 % of control; in [10] (1.0E-07 M) it was 127 % of control. Besides, the “Residual activity, SRPK1” value in assay [4] (assay conc. 1.0E-06 M) is on record as 97 % of control; in [4] (assay conc. 1.0E-07 M), 100 % of control. For the same compound, the entries for the “Residual activity, RIPK5” value in [8] (assay conc. 1.0E-06 M) and in [8] (assay conc. 1.0E-07 M) were 71 % of control and 84 % of control, respectively. Moreover, the VEGFR2 inhibition in [11] was more than 50%.

In the case of `C#Cc1cc(Nc2ncnc3cc(I)ccc23)ccc1Cl` [Compound 41], the Residual activity is 95 % of control in assay [1] (1.0E-06 M); 100 % of control in [1] (1.0E-07 M); 83 % of control in assay [2] (EPHA4, 1.0E-06 M); 96 % of control in [2] (EPHA4, 1.0E-07 M); 87 % of control in assay [3] (CDK3/CycC, 1.0E-06 M); 90 % of control in assay [3] (CDK3/CycC, 1.0E-07 M). For the same compound, the Residual activity was 96 % of control in [3] (CDK3/CycE1, 1.0E-06 M); 115 % of control in assay [3] (CDK3/CycE1, 1.0E-07 M); 87 % of control in assay [5] (MAP3K9, 1.0E-06 M); 97 % of control in assay [5] (MAP3K9, 1.0E-07 M); 98 % of control in [6] (PLK1, 1.0E-06 M); 98 % of control in assay [6] (PLK1, 1.0E-07 M). Moreover, the Residual activity in assay [7] (1.0E-06 M) was 92 % of control; in assay [7] (1.0E-07 M), 91 % of control; in [9] (ABL2, 1.0E-06 M), 97 % of control; in assay [9] (ABL2, 1.0E-07 M), 106 % of control; in [10] (1.0E-06 M), 123 % of control; in [10] (1.0E-07 M), 130 % of control. Also, the “Residual activity, SRPK1” value in assay [4] (assay conc. 1.0E-06 M) is on record as 89 % of control; in assay [4] (assay conc. 1.0E-07 M), 96 % of control. Besides, the “Residual activity, RIPK5” value in [8] (assay conc. 1.0E-06 M) was 85 % of control; in [8] (assay conc. 1.0E-07 M), 96 % of control.
